What was measured:
TFEB [1] = test: TFEB nuclear translocation in cells expressing constitutively active Akt (Akt-DD); type: cell-based, human; conditions: 24 h
Protocol: FIG. 16. Trehalose controls Akt regulation of TFEB in a GSK3β-independent manner. (a) HeLa cells were treated with trehalose for 24 h or left untreated. Immunoblot analyses were used to evaluate levels of GSK33 and its phosphorylation status. GAPDH was used as a loading control. (b) HeLa cells were cotransfected with TFEB-3×Flag and constitutively active GSK3β (CA-GSK3β), treated with trehalose or MK2206 for 24 h, and examined by immunofluorescence labeling for Flag (red) and GSK3β (green). Scale bar is 20 […]. (c) HeLa cells were cotransfected with TFEB-3×Flag and constitutively active Akt (Akt-DD), treated with the GSK3β inhibitor CHIR99021 for 24 h, and examined by immunofluorescence labeling for Flag (red) and Akt (green). Scale bar is 20 μm.

TFEB [2] = test: TFEB nuclear translocation in HeLa/TFEB cells; type: cell-based, human; conditions: confocal microscopy and subcellular fractionation
Protocol: Control (Coriell Institute, USA) and JNCL fibroblasts (Gaslini Institute, Italy) were grown in DMEM (1:1, HyClone) supplemented with 10% heat-inactivated fetal bovine serum (FBS, Atlanta Biologicals), 2 mM L-glutamine, 100 U/ml penicillin and […] streptomycin (Invitrogen). HeLa cells were incubated for 2 h with LY294002 ([…], Cell Signaling), Torin 1 (300 nM, Cayman Chemical) or for 24 h with trehalose (100 mM, Sigma), rapamycin (300 nM, Sigma), MK2206 (1 μM, Selleckchem), U0126 ([…], Tocris) and dialyzed serum (GE Healthcare Life Sciences) for 30 min. For immunofluorescence assay, cells were grown on coverslips in 24-well plates. After the treatment, cells were washed with PBS and fixed with methanol for 10 min. Cells were then blocked with blocking reagent (0.1% saponin, 10% bovine serum in PBS) for 1 h and incubated with appropriate primary antibody(s) (1:100) for 3 h at room temperature. After three washes with PBS, the cells were incubated with appropriate secondary antibodies (1:500) for 1 h at room temperature. Coverslips were then mounted with vectashield containing 4,6-diamidino-2-phenylindole (H-1200) for imaging via confocal microscopy. Cell pellets were resuspended in lysis buffer (10 mM Hepes pH 7.9, 10 mM KCl, 0.1 mM EDTA and 0.4% Nonidet P40) with inhibitors by pipetting and kept in ice for 30 min. After 1 min of spin at full speed, the supernatant was collected as cytosolic fraction. The pellet was washed twice with lysis buffer and resuspended with nuclear buffer (20 mM Hepes pH 7.9, 0.4M NaCl and 1 mM EDTA) containing phosphatases and proteases inhibitors. After 15 min of vigorous shaking on an Eppendorf shaker, the pellet was spun down at full speed for 10 min. The supernatant was used as the nuclear fraction.

[3] = system: Batten mice (Cln3 KO mice); test: Neuronal cell death (density of CAS-3 positive cells); type: in vivo, mouse
Protocol: (§1) Batten mice (Cln3 KO mice) were administered trehalose, a low dose of miglustat, a high dose of miglustat, or a combination of trehalose and miglustat. Two controls were used in these experiments: (1) untreated Batten mice, and (2) untreated wild type mice. Neuronal cell death (measured by the density (no. of cells/area) of CAS-3 positive cells), neuroinflammation (measured by the number of GFAP-positive astrocyte cells in the neuronal system), and macrophage infiltration into the nervous system (measured by the % area of CD68) were measured.

[4] = system: Batten mice (Cln3 KO mice); test: Astrogliosis (GFAP-positive cells); type: in vivo, mouse
Protocol: as §1

[5] = system: Batten mice (Cln3 KO mice); test: Macrophage infiltration (% area of CD68); type: in vivo, mouse
Protocol: as §1

[6] = molecular target: TFEB-3×FLAG (transcription factor EB, wild type, Flag-tagged) (UniProt P19484)
TFEB-3×FLAG (transcription factor EB, wild type, Flag-tagged), sequence (P19484 whole entry): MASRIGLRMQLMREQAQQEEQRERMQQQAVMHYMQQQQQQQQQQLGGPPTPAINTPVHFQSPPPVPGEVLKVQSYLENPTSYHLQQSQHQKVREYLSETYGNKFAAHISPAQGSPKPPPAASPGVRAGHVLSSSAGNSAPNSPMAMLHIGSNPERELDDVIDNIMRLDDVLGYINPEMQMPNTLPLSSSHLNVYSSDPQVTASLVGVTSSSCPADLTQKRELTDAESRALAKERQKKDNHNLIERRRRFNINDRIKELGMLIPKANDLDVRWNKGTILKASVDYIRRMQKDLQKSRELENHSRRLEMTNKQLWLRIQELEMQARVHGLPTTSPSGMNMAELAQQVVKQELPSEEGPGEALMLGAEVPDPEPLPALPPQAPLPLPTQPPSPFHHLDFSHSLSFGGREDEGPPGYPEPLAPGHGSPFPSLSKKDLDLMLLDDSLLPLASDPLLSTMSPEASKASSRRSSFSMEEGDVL

[7] = all miglustat-treated Batten mice
[8] = all miglustat-treated mice, P<0.05

For `Cc1c[nH]c(-c2cnc(NCCNc3ccc(C#N)cn3)nc2-c2ccc(Cl)cc2Cl)n1` [CHIR-99021], the TFEB nuclear translocation (TFEB [1]) was “promoted nuclear translocation of TFEB”.

For `CCC(=O)N1CCN(c2ccc(-n3c(=O)ccc4cnc5ccc(-c6cnc7ccccc7c6)cc5c43)cc2C(F)(F)F)CC1` [Torin 1], the “TFEB nuclear translocation on kinase inhibitors” value (TFEB [2]) was “TFEB nuclear translocation”.

With `CCCCN1C[C@H](O)[C@@H](O)[C@H](O)[C@H]1CO` [miglustat] the “neuronal cell death vs wild-type mice” value [3, 7] was “indistinguishable from the wild-type mice”, the “neuronal cell death vs untreated Batten mice” value ([3]; low dose, high dose, or combined with trehalose, P<0.05) was “less neuronal cell death” and the “astrogliosis vs wild-type mice” value [4, 7] was “indistinguishable from the wild-type mice”. The “GFAP-positive cells vs untreated Batten mice” value [4, 8] was “less GFAP-positive cells”, the “macrophage infiltration vs wild-type mice” value [5, 7] was “indistinguishable from the wild-type mice” and the “macrophage infiltration vs untreated Batten mice” value [5, 8] was “less macrophage infiltration”.

“purified, active AKT1 enzyme (SignalChem)” was tested, and the “in vitro Akt kinase assay ([32P]ATP, autoradiography)” value [6] was “Akt phosphorylates purified TFEB”.

— US10512656B2, “Compositions and methods for the treatment of lysosomal storage disorders and disorders characterized by lysosomal dysfunction” (Baylor College of Medicine, priority 2016, dated 2019)
